The text below walks through data of patent US20140081017A1, “Histone Deacetylase Inhibitors for Enhancing Activity of Antifungal Agents” (METHYLGENE INC., priority 2012, published 2014).

Structures are written as SMILES. ≈ marks a conversion by molar mass, not a printed value. Where two headings read alike, the source gives them in different places. A value given as a limit tells only on which side of the number the result lay.

Assay [1] deals with Candida albicans. Kind of assay: Minimal Inhibitory Concentration (MIC) assay, broth microdilution per CLSI.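 For all read-outs here: two read times 24 hr and 48 hr of incubation.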 The conditions noted are these: for MIC: Candida albicans, read-out: Minimum Inhibitory Concentrations against Yeast Isolates, Candida albicans. It counts as cell-based. The method, then:
(§1) The in vitro activities of the inventive compounds (compound(s) herein) against fungi and/or yeasts were determined with isolates Candida albicans, Candida glabrata and Candida parapsilosis. The comparator compounds included fluconazole, caspofungin and amphotericin B.
(§2) The compounds were supplied as a powder, and were dissolved in dimethylsulfoxide (DMSO) the day of assay. Stock solutions were prepared at 10 mg/mL and diluted to a starting stock concentration of 2.56 mg/mL. Amphotericin B was dissolved in DMSO to a stock concentration of 2.56 mg/mL. Fluconazole was dissolved in deionized water to a stock concentration of 2.56 mg/mL. Caspofungin was received as a stock solution of 3.2 mg/mL in DMSO and was diluted to a starting stock concentration of 2.56 mg/mL.
(§3) The test organisms and reference isolates were streaked for isolation on Sabouraud agar medium (yeasts) or potato dextrose agar (fungi). Colonies were picked by swab from the medium and resuspended in the appropriate broth containing cryoprotectant. The suspensions were aliquoted into cryogenic vials and maintained at −80° C.
(§4) Prior to testing, the yeast isolates were streaked from the frozen vials onto Sabouraud dextrose agar. The plates were incubated overnight at 35° C. The fungal isolate was grown on potato dextrose agar slants and was incubated for 7-10 days at room temperature.
(§5) Both yeast and fungal isolates were tested in RPMI medium buffered with 0.165 M MOPS (3-(N-morpholino)propanesulfonic acid). The pH of the medium was adjusted to 7.0 with 1 N NaOH. The medium was sterile filtered using a 0.2 um PES (polyethersulfone) filter and stored at 4° C. until used.
(§6) The MIC assay method followed the procedure described by the Clinical and Laboratory Standards Institute (CLSI; 1, 2, 3) and employed automated liquid handlers to conduct serial dilutions and liquid transfers. Automated liquid handlers included the Multidrop 384 (Labsystems, Helsinki, Finland), Biomek 2000 and Biomek FX (Beckman Coulter, Fullerton Calif.). The wells in columns 2-12 in standard 96-well microdilution plates (Costar 3795) were filled with 150 ul of 100% DMSO. These would become the ‘mother plates’ from which ‘daughter’ or test plates would be prepared. The compounds (300 uL at 40× the desired top concentration in the test plates) were dispensed into the appropriate well in Column 1 of the mother plates. The Biomek 2000 was used to make serial 1:1 dilutions through Column 11 in the “mother plate”. The wells of Column 12 contained no compounds and were the organism growth control wells.
(§7) The daughter plates were loaded with 185 uL per well of RPMI described above using the Multidrop 384. The daughter plates were prepared using the Biomek FX which transferred 5 μL of the compound solution from each well of a mother plate to the corresponding well of the daughter plate in a single step.
(§8) Standardized inoculum of each organism was prepared per CLSI methods. For yeast isolates, colonies were picked from the streak plate and a suspension was prepared in 0.85% saline. For the fungal isolate, 1 mL of 0.85% saline was dispensed onto the potato dextrose agar slant that had been inoculated 7-10 days previously. Using a swab, a suspension of the fungus was made. After a short time to allow the heavy particles to settle out, a small quantity of the supernatant was dispensed into 0.85% saline and the suspension adjusted to equal a 0.5 McFarland turbidity standard. Both yeast and fungal isolates were diluted 1:100 in RPMI and then transferred to compartments of sterile reservoirs divided by length (Beckman Coulter). The Biomek 2000 was used to inoculate the plates. Daughter plates were placed on the Biomek 2000 work surface reversed so that inoculation took place from low to high compound concentration. The Biomek 2000 delivered 10 μL of standardized inoculum into each well. Thus, the wells of the daughter plates ultimately contained 185 uL of RPMI, 5 uL of the compound solution, and 10 uL of inoculum. […]
Background: Broth dilution looks for growth in wells or tubes with falling amounts of substance.

Assay [2] concerns Candida glabrata. The description is as above. It counts as cell-based. The conditions noted are these: for MIC: Nakaseomyces glabratus, read-out: Minimum Inhibitory Concentrations against Yeast Isolates, Candida glabrata. As for the experimental part:
as §1, §2, §3, §4, §5, §6, §7, §8

The subject of assay [3] is Candida parapsilosis. Described as above. The class given is cell-based. The conditions noted are these: for MIC: Lodderomyces parapsilosis, read-out: Minimum Inhibitory Concentrations against Yeast Isolates, Candida parapsilosis. The method, then:
as §1, §2, §3, §4, §5, §6, §7, §8

Assay [4] has as its system C. glabrata. The assay is described as follows: Checkerboard FIC assay in combination with fluconazole (MIC alone and in combination, FICI). It counts as cell-based, Candida glabrata. The conditions noted are these: for MIC: Nakaseomyces glabratus. As for the experimental part: The ability of the compounds to synergize with azoles against C. glabrata was evaluated by the checkerboard assay, a common laboratory method used to evaluate synergy, antagonism, and indifference using fractional inhibitory concentrations (FICs) and FIC indices (FICI).
The test compounds were supplied as a powder and dissolved in dimethylsulfoxide (DMSO) on the day of assay. Stock solutions were prepared at 640 ug/mL. Fluconazole was dissolved in deionized water to a stock concentration of 320 ug/mL. All test articles were in solution under these conditions.
as §3, §4, §5
FIC values were determined using a broth microdilution method (CLSI; 1, 3). To prepare the test plates, automated liquid handlers (Multidrop 384, Labsystems, Helsinki, Finland; Biomek 2000 and Biomek FX, Beckman Coulter, Fullerton Calif.) were used to conduct serial dilutions and liquid transfers.
The wells of standard 96-well microdilution plates (Costar 3795) were filled with 150 uL of DMSO in columns 2-12. Three hundred microliters of each test compound was added to each well in Column 1 of the plates. The Biomek 2000 was used to make eleven 2-fold serial dilutions in each of these “test compound mother” plates. The wells of the “fluconazole mother plates” were filled with 150 uL of sterile water in rows B-H. Row A of these plates was filled with 300 uL of the fluconazole stock solution. Serial 2-fold dilutions were then prepared from top to bottom by hand, using a multichannel pipette in rows B-G. The “daughter plates” were loaded with 180 uL of RPMI using the Multidrop 384. The Biomek FX was used to transfer 5 uL of compound solution from each well of a fluconazole mother plate to the corresponding well in all of the daughter plates in a single step. Then the Biomek FX was used to transfer 5 uL of compound solution from each well of a test compound mother plate to the corresponding well of the corresponding test compound daughter plate (already containing fluconazole at the appropriate concentrations) in a single step. Row H and Column 12 each contained serial dilutions of the test agent and fluconazole alone, respectively, for determination of the MIC.
Standardized inoculum of each organism was prepared per CLSI methods (CLSI; 1, 3). For yeast isolates, colonies were picked from the primary plate and a suspension was prepared in 0.85% saline to equal a 0.5 McFarland turbidity standard. For the fungal isolate, 1 mL of 0.85% saline was dispensed onto a potato dextrose agar slant onto which the isolate had been inoculated 7-10 days previously. Using a swab, a suspension of the fungus was made. After a short time to allow the heavy particles to settle out, a small quantity of the supernatant was dispensed into 0.85% saline and the suspension was adjusted to equal a 0.5 McFarland turbidity standard. Both yeast and fungal isolates were diluted 1:100 in RPMI and then transferred to compartments of sterile reservoirs divided by length (Beckman Coulter). The Biomek 2000 was used to inoculate the plates. […]

Setting [5] is: 24 hr reading (first value of cell 24 hr/48 hr).
[6] abbreviates: 48 hr reading (second value of cell 24 hr/48 hr).
Where [7] appears, read: C. glabrata, FICI calculated using a fluconazole MIC of 16 μg/mL.
Where [8] appears, read: C. glabrata, FICI using a fluconazole MIC of 128 μg/mL.
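Throughout, for Minimum Inhibitory Concentrations against Yeast Isolates, Candida glabrata: two read times 24 hr and 48 hr of incubation.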
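Throughout, for Minimum Inhibitory Concentrations against Yeast Isolates, Candida parapsilosis: two read times 24 hr and 48 hr of incubation.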

On to `CN(C)CCCOc1ccc(CCCCc2ccc(CC(=O)NO)cc2)cc1` [Example 17, 2-(4-(4-(4-(3-(dimethylamino)propoxy)phenyl)butyl)phe-nyl)-N-hydroxyacetamide], for which the MIC in assay [1] (setting [5]), in assay [1] (setting [6]), in assay [2] (setting [5]), in assay [2] (setting [6]), in assay [3] (setting [5]) and in assay [3] (setting [6]) was greater than 64 µg/mL in each case.
Regarding `O=C(Cc1ccc(CCCCC2CCCCC2)cc1)NO` [Example 8, 2-(4-(4-cyclohexylbutyl)phenyl)-N-hydroxyacetamide], the MIC in assay [1] (setting [5]) worked out at 0.25 µg/mL (≈ 0.864 µM); in assay [1] (setting [6]), 0.25 µg/mL (≈ 0.864 µM); in assay [2] (setting [5]), 0.12 µg/mL (≈ 0.415 µM); in assay [2] (setting [6]) it was 0.12 µg/mL (≈ 0.415 µM); in assay [3] (setting [5]), 0.12 µg/mL (≈ 0.415 µM); in assay [3] (setting [6]), 0.25 µg/mL (≈ 0.864 µM). In addition, the MIC in assay [4] (MIC of the example compound alone against C. glabrata in the checkerboard assay, approximately 48 hr, read-out: Methylgene MIC) turned out to be 0.25 µg/mL; in assay [4] (test compound alone, C. glabrata, approx. 48 hr at 35° C., read-out: Compound MIC), 0.25 µg/mL. Besides, in assay [4] (setting [7]), the “FICI of combination resulting in fluconazole MIC of: 2 ug/mL” value is given as 0.543. Moreover, the “FICI of combination resulting in fluconazole MIC of: 4 ug/mL” value in assay [4] (setting [7]) is given as 0.605. The “FICI of combination resulting in fluconazole MIC of: 8 ug/mL” value in assay [4] (setting [7]) is 0.730. The “FICI of combination resulting in fluconazole MIC of: 2 ug/mL (value in parenthesis)” value in assay [4] (setting [8]) was 0.496. In addition, in assay [4] (setting [8]), the “FICI of combination resulting in fluconazole MIC of: 4 ug/mL (value in parenthesis)” value was 0.511. For the same compound, in assay [4] (setting [8]), the “FICI of combination resulting in fluconazole MIC of: 8 ug/mL (value in parenthesis)” value was found to be 0.543. Moreover, the “Multiple of compound MIC to synergize fluconazole MIC to 2 ug/mL” value in assay [4] (concentration in combination as multiple of the compound's MIC alone, fluconazole MIC 2 ug/mL) was “(½x)”. Besides, the “Multiple of compound MIC to synergize fluconazole MIC to 4 ug/mL” value in assay [4] (concentration in combination as multiple of the compound's MIC alone, fluconazole MIC 4 ug/mL) is reported as “(½x)”. In assay [4] (concentration in combination as multiple of the compound's MIC alone, fluconazole MIC 8 ug/mL), the “Multiple of compound MIC to synergize fluconazole MIC to 8 ug/mL” value was “(½x)”. Also, the “Concentration of Methylgene compound to synergize fluconazole MIC to 2 ug/mL” value in assay [4] (in combination with fluconazole, C. glabrata, fluconazole MIC lowered to 2 ug/mL) was 0.12 µg/mL. Moreover, the “Concentration of Methylgene compound to synergize fluconazole MIC to 4 ug/mL” value in assay [4] (in combination with fluconazole, C. glabrata, fluconazole MIC lowered to 4 ug/mL) was 0.12 µg/mL. Also, the “Concentration of Methylgene compound to synergize fluconazole MIC to 8 ug/mL” value in assay [4] (in combination with fluconazole, C. glabrata, fluconazole MIC lowered to 8 ug/mL) was 0.12 µg/mL.
On to `C[C@@H]1[C@H](O)[C@@H](C)/C=C/C=C/C=C/C=C/C=C/C=C/C=C/[C@H](O[C@@H]2O[C@H](C)[C@@H](O)[C@H](N)[C@@H]2O)C[C@@H]2O[C@](O)(C[C@@H](O)C[C@@H](O)[C@H](O)CC[C@@H](O)C[C@@H](O)CC(=O)O[C@H]1C)C[C@H](O)[C@H]2C(=O)O` [Amphotericin B, reference compound], for which the “Minimum Inhibitory Concentrations against Yeast Isolates, Candida albicans” value in assay [1] (setting [5]) was less than 0.06 µg/mL; in assay [1] (setting [6]) it was 0.25 µg/mL. For the same compound, the “Minimum Inhibitory Concentrations against Yeast Isolates, Candida glabrata” value in assay [2] (setting [5]) was less than 0.06 µg/mL; in assay [2] (setting [6]), 0.5 µg/mL. For the same compound, the “Minimum Inhibitory Concentrations against Yeast Isolates, Candida parapsilosis” value in assay [3] (setting [5]) came out at 0.25 µg/mL; in assay [3] (setting [6]), 0.5 µg/mL.
Turning to `O=C(Cc1ccc(CCCCc2ccc(OCCN3CCCC3)cc2)cc1)NO` [Example 18, N-hydroxy-2-(4-(4-(4-(2-(pyrrolidin-1-yl)ethoxy)phenyl)butyl)phenyl)acetamide], the MIC in assay [1] (setting [5]), in assay [1] (setting [6]), in assay [2] (setting [5]), in assay [2] (setting [6]), in assay [3] (setting [5]) and in assay [3] (setting [6]) was greater than 64 µg/mL throughout.
Regarding `O=C(Cc1ccc(CCCCc2ccccc2)o1)NO` [Example 62, N-hydroxy-2-(5-(4-phenylbutyl)furan-2-yl)acetamide], the MIC in assay [1] (setting [5]), in assay [1] (setting [6]), in assay [2] (setting [5]), in assay [2] (setting [6]), in assay [3] (setting [5]) and in assay [3] (setting [6]) was 32 µg/mL (≈ 117 µM) throughout.
